How the values were obtained:
[1] = tested on: normal NK cells expanded with K562-aAPC; test: percent inhibition of viability; higher = more inhibition; details: 72 h, IL-2 2.5 ng/mL
Experimental: (§1)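 Drug sensitivity and resistance testing on K562-aAPC-expanded normal NK cells: 5 concentrations (10-fold steps over a 10,000-fold range), 72 h at 37 °C, viability by CellTiter-Glo normalised to DMSO and benzethonium chloride controls; DSS from the fitted curve.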

[2] = tested on: DERL-7 (IL-2 2.5 ng/mL); test: as above; details: 72 h
[3] = tested on: IMC-1 (IL-2 20 ng/mL); test: as above; details: 72 h
[4] = tested on: KAI3 (IL-2 2.5 ng/mL); test: as above; details: 72 h
[5] = tested on: KHYG-1 (IL-2 2.5 ng/mL); test: as above; details: 72 h
[6] = tested on: NK-92 (IL-2 2.5 ng/mL); test: as above; details: 72 h
[7] = tested on: NK-YS (IL-2 2.5 ng/mL); test: as above; details: 72 h
[8] = tested on: NKL (IL-2 2.5 ng/mL); test: as above; details: 72 h
[9] = tested on: SNK-6 (IL-2 2.5 ng/mL); test: as above; details: 72 h
[10] = tested on: YT (IL-2 2.5 ng/mL); test: as above; details: 72 h
[11] = tested on: normal primary NK cells, pool 1 (3 donors) (IL-2 2.5 ng/mL); test: as above; details: 72 h
[12] = tested on: normal primary NK cells, pool 1 (3 donors), resting (IL-2 0 ng/mL); test: as above; details: 72 h
[13] = tested on: normal primary NK cells, pool 2 (3 donors) (IL-2 2.5 ng/mL); test: as above; details: 72 h
[14] = tested on: normal primary NK cells, pool 3 (3 donors) (IL-2 2.5 ng/mL); test: as above; details: 72 h
[15] = tested on: normal NK cells expanded with K562-aAPC; test: drug sensitivity score (DSS) (DSS units); higher = more sensitive; extreme values may be limits of the assay; details: 72 h; IL-2 2.5 ng/mL
Experimental: as §1

[16] = tested on: DERL-7 (IL-2 2.5 ng/mL); test: as above; details: 72 h
[17] = tested on: IMC-1 (IL-2 20 ng/mL); test: as above; details: 72 h
[18] = tested on: KAI3 (IL-2 2.5 ng/mL); test: as above; details: 72 h
[19] = tested on: KHYG-1 (IL-2 2.5 ng/mL); test: as above; details: 72 h
[20] = tested on: NK-92 (IL-2 2.5 ng/mL); test: as above; details: 72 h
[21] = tested on: NK-YS (IL-2 2.5 ng/mL); test: as above; details: 72 h
[22] = tested on: NKL (IL-2 2.5 ng/mL); test: as above; details: 72 h
[23] = tested on: SNK-6 (IL-2 2.5 ng/mL); test: as above; details: 72 h
[24] = tested on: YT (IL-2 2.5 ng/mL); test: as above; details: 72 h
[25] = tested on: normal primary NK cells, pool 1 (3 donors) (IL-2 2.5 ng/mL); test: as above; details: 72 h
[26] = tested on: normal primary NK cells, pool 1 (3 donors), resting (IL-2 0 ng/mL); test: as above; details: 72 h
[27] = tested on: normal primary NK cells, pool 2 (3 donors) (IL-2 2.5 ng/mL); test: as above; details: 72 h
[28] = tested on: normal primary NK cells, pool 3 (3 donors) (IL-2 2.5 ng/mL); test: as above; details: 72 h

C[C@H]1C[C@@H]2[C@H]([C@@H](O)C[C@@]3(C)[C@H]2CC[C@]3(O)C(=O)CO)[C@@]2(C)C=CC(=O)C=C12 [Methylprednisolone] (max concentration tested 10000 nM)
percent inhibition of viability [%]
Details	1 nM	10 nM	100 nM	1000 nM	10000 nM
[1]	-4.84	16.6	51.6	67.2	74.4
[2]	-1.31	19	94	100	101
[3]	-4.86	-2.72	-15.2	-4.89	-2.93
[4]	-8.86	-6.63	-0.28	7.95	30.7
[5]	-4.65	5.05	18.2	46	55.1
[6]	-14.6	-20.1	-27.4	-10.6	3.24
[7]	-6.22	-4.6	0.39	6.37	16.5
[8]	4.02	31.1	57	63.6	67.6
[9]	7.96	-13.3	-4.6	-6.43	15.4
[10]	-5.71	10.2	19.4	43.3	53.1
[11]	6.03	24	56.2	75.3	81.7
[12]	-1.18	47.6	75.4	84.2	87.2
[13]	-6.66	20.1	52.2	69.9	76.8
[14]	-7.17	8.16	33.7	46.2	58.4

Details	drug sensitivity score
[15]	20.6
[16]	32.1
[17]	0
[18]	2.54
[19]	10.5
[20]	0
[21]	0.89
[22]	23
[23]	0.13
[24]	10.3
[25]	23.3
[26]	31.7
[27]	21.3
[28]	13.5

COc1cc(F)c(F)c(Nc2ccc(I)cc2F)c1NS(=O)(=O)C1(C[C@H](O)CO)CC1 [Refametinib] (max concentration tested 10000 nM)
percent inhibition of viability [%]
Details	1 nM	10 nM	100 nM	1000 nM	10000 nM
[1]	-5.33	-11.3	-6.84	4.3	23.1
[2]	6.17	13	30.2	53.8	78
[3]	-4.32	-6.37	-1.56	6.1	35.3
[4]	-4.59	6.78	18.3	26.5	39.6
[5]	-5.12	4.63	33.5	62.9	76.7
[6]	-0.27	-1.5	-9.05	19.5	37.8
[7]	-4.96	-5.01	5	14.1	31.5
[8]	-2.52	16.4	39.5	74.4	82.3
[9]	2.1	-35.6	-25	-46.3	-9.38
[10]	1.91	1.53	7.51	17.5	44.4
[11]	-10.8	15.4	14	11.4	29.1
[12]	0.56	9.23	10.7	12.4	49.4
[13]	0	6.56	8.63	16.2	40.9
[14]	-4.86	5.75	-0.36	3.44	28.4

Details	drug sensitivity score
[15]	1.44
[16]	14.7
[17]	2.67
[18]	6.75
[19]	16
[20]	4.28
[21]	2.69
[22]	19.1
[23]	0
[24]	4.03
[25]	3.32
[26]	4.14
[27]	3.81
[28]	1.74
